The numbers were not newly measured in patent publication US20210322342A1, “ENDOXIFEN FOR THE TREATMENT OF BIPOLAR I DISORDER” (Jina Pharmaceuticals, Inc., priority 2020, published 2021), which cites them from elsewhere.

For data set [1] the following is noted: for plasma levels of free thyroxin (fT4): use of antipsychotics.
The subject of another data set is PKC. The conditions noted are these: compared to tamoxifen.

Take `OCCOCCN1CCN(C2=Nc3ccccc3Sc3ccccc32)CC1` [quetiapine]: the “plasma levels of free thyroxin (fT4)” value in data set [1] was “significantly lower”.
For `Cc1cc2c(s1)Nc1ccccc1N=C2N1CCN(C)CC1` [olanzapine], in data set [1] (in vivo), the haematological adverse effects entry was “causes neutropenia and thrombocytopenia”. Also, in data set [1], the “plasma levels of free thyroxin (fT4)” value is listed as “significantly lower”.
For `CC/C(=C(\c1ccc(O)cc1)c1ccc(OCCNC)cc1)c1ccccc1.O=C(O)CC(O)(CC(=O)O)C(=O)O` [Endoxifen, (Z)—1-(4-Hydroxyphenyl)-1-{4-[2-(monomethylamino)ethoxy]phenyl}—2—pheny 1-1-butene citrate], the “potency in inhibiting the PKC activity” value in the data set on PKC is recorded as “four-fold higher potency”.
